Experiments:
stimulated human PBMCs = assay: Liquid media serial dilution assay in standard 96 well microplate, resazurin read-out; type: cell-based
Experimental: Human PBMC were extracted for Buffy coat bags from blood bank volunteer donation using density gradient centrifugation in adequate hydrophilic isosmotic polysaccharide solutions with a density of 1.077 g/ml (Pancoll, PAN BIOTECH GmbH or Ficoll, GE Healthcare) at 760 G during 20 minutes at RT. Cells were extracted with pipette from the gradient interphase and then washed in HBSS w/o Ca, Mg and Phenol red (Lonza), and resuspended in X-VIVO 15 (Lonza) medium. Obtained cells were frozen in cryovials with serum free medium (Profreeze-CDM, Lonza) DMSO (Sigma Aldrich) 7.5% and storage until use in liquid nitrogen.
A few days later, removed vials from liquid nitrogen were immediately thawed in a 37° C. water bath for 2 minutes. […] After supernatant discard, cells were re-suspended in X-VIVO medium for further count and viability quantification.
After thawing PBMCs viability was quantified by trypan blue and Neubauer chamber. […]
After 10-12 hours of incubation with presto blue, 100 ul of each well were transferred to a 96 well ELISA plate, and then absorbance at 570 and 620 nm wavelength was quantified in a robotic absorbance microplate reader (Tekan, Infinite F50). Final values were obtained as result of absorbance at 570 nm minus absorbance at 620 nm, following instructions from presto blue manufacturer (Thermo Fisher). […]

Human activated PBMC = assay: Disc diffusion assay in semisolid media (agarose 0.5% / collagen 0.3% hydrogels), 6 well plates, resazurin read-out; type: cell-based; conditions: different disc loads, FIG. 12
Experimental: PBMC T-Cells were activated though incubation with Dynabeads Human T-activator CD3/CD28 agonistic antibodies (Thermo Fisher, cat #111.32D) using a ratio 1:2 (dynabeads:PBMC) in a cell culture bottle. PBMC in the absent of dynabeads were also cultured as negative control of stimulation.
Paper discs of 6 mm diameter discs were used as immunosuppressant delivery units. Discs were obtained from manual drill of Whatman™, 3 mm CHR chromatography paper sheet or using ready to use commercial paper disc (DDbiolab). Discs were sterilized by autoclave. Immunosupressant drugs (Sigma Aldrich) was dissolved in pure ethanol (Sigma Aldrich) at 20 mg/ml and stored as stock solution at −20° C. till use. […]
Resazurin (blue) transition to resofurin (pink) was monitored with the naked eye or checked after overnight incubation depending on assay design. […] Results were collected through images acquisition with visible light (Sanyo camera S1070 and E1075), ultraviolet light (UVltec Geldoc Gel Light Imaging System) and fluorescence microplate multyreader (PHERAstar® FSX Multimode Microplate Reader from BMG LABTECH or Spark® 10M Tecan.). Inhibitory gradients halos or fronts induced by discs loaded with immunosuppressants were quantified with ImageJ software in a semi-automated process or Spark control v1.2.25 software. […]

[1] = system: renal transplanted patient PBMCs; assay: Immunobiogram: disc diffusion gradient in collagen-methylcellulose hydrogel in 12 channelled well plates, clinical study; type: cell-based, human; conditions: patient 211; compared with tacrolimus and prednisone curves; FIG. 31
Experimental: A multicenter study was conducted with a cohort of 70 renal transplant recipient patients, also 10 healthy volunteers were included for comparison purposes. The inclusion criteria consisted in men and women aged over 18 years with kidney transplant performed at least 1 year prior to inclusion. Patients present different defined and registered immunological risk profiled when included. Transplant patient clinical history includes complete recording of previous and updated immunological relevant data at the inclusion time.
Sample collection for the immunobiogram implementation consisted in two sodium heparin Vacutainer® tubes. Human PBMCs extraction from blood sample was performed using density gradient centrifugation (760 G during 15-20 minutes at RT) in adequate hydrophilic isosmotic polysaccharide solutions with a density of 1.077 g/ml (Pancoll, PAN BIOTECH GmbH or Ficoll, GE Healthcare). Cells were extracted with pipette from the gradient interphase and then washed in HBSS w/o Ca, Mg and Phenol red (Lonza), and resuspended in X-VIVO 15 (Lonza) medium. Obtained cells were frozen in cryovials with serum free medium (Profreeze-CDM, Lonza) DMSO (Sigma Aldrich) 7.5% and storage in liquid nitrogen until use. […] After the supernatant was discarded, cells were re-suspended in X-VIVO medium for further count and viability quantification. […]

[2] = general solubility profile, no test described; cited from earlier work

Row | Compound | recovery of PBMC proliferative capacity versus positive control (stimulated human PBMCs; 96 standard wells microplate serial dilutions, all concentration tested, even femtomolar, FIGS. 14 and 15) | inhibitory effect over stimulated human PBMCs (stimulated human PBMCs; standard wells, all the concentrations tested (even at femtomolar levels)) | inhibitory halos over activated human PBMC (Human activated PBMC) | Immunobiogram response curve [1] | aqueous solubility [2]
1 | CO[C@H]1C[C@@H]2CC[C@@H](C)[C@@](O)(O2)C(=O)C(=O)N2CCCC[C@H]2C(=O)O[C@H]([C@H](C)C[C@@H]2CC[C@@H](OCCO)[C@H](OC)C2)CC(=O)[C@H](C)/C=C(\C)[C@@H](O)[C@@H](OC)C(=O)[C@H](C)C[C@H](C)/C=C/C=C/C=C/1C [Everolimus] | did not recover proliferative capacity comparable with positive control level | at least some inhibitory level effect | Dose dependant inhibitory halos | – | –
2 | COc1c(C)c2c(c(O)c1C/C=C(\C)CCC(=O)OCCN1CCOCC1)C(=O)OC2 [MMF, micofenolate] | – | – | – | less responsive | –
3 | COc1c(C)c2c(c(O)c1C/C=C(\C)CCC(=O)O)C(=O)OC2 [Mycophenolic acid, Mycophenolic Acid] | – | – | Dose dependant inhibitory halos | – | good aqueous solubility

Source: patent US11175282B2, “Method for predicting and monitoring clinical response to immunomodulatory therapy” (BIOHOPE Scientific Solutions for Human Health S.L., priority 2017, dated 2021)
